Source: the NIST ThermoML archive (doi:10.1016/j.jct.2013.08.030)
± gives the expanded uncertainty stated by the source.

Details: 101.33 kPa, Liquid, Vibrating tube method

SMILES: CCCC[N+]1(C)CCOCC1.N#C[C-](C#N)C#N [4-butyl-4-methylmorpholinium tricyanomethanide]
- mass density (288.15 K): 1073.6 ± 2.2 kg/m3
- mass density (298.15 K): 1067.03 ± 2.2 kg/m3
- mass density (308.15 K): 1060.79 ± 2.2 kg/m3
- mass density (318.15 K): 1054.69 ± 2.2 kg/m3
- mass density (328.15 K): 1048.61 ± 2.1 kg/m3
- mass density (338.15 K): 1042.61 ± 2.1 kg/m3
- mass density (348.15 K): 1036.67 ± 2.1 kg/m3
- mass density (358.15 K): 1030.77 ± 2.1 kg/m3
- mass density (368.15 K): 1024.3 ± 2.1 kg/m3
